# Experimental data taken from patent US9061030B2, “sGC stimulators” (IRONWOOD PHARMACEUTICALS, INC., priority 2010, dated 2015).
# Test system: Thoracic aortic rings
# Test: Thoracic aortic rings assay
# Parameters: species or system rat
# Details: for inhibition at 1 µM: 1 μM compound, read-out: Percent Relaxation at 1 μM; for inhibition at 1 µM / inhibition at 3 µM / inhibition at 10 µM: rat thoracic aortic rings contracted with 100 ng/mL phenylephrine; for inhibition at 3 µM: 3 μM compound, read-out: Percent Relaxation at 3 μM; for inhibition at 10 µM: 10 μM compound, read-out: Percent Relaxation at 10 μM; for EC50: relaxation of rat thoracic aortic rings contracted with 100 ng/mL phenylephrine, read-out: Aortic Ring EC50
# Description: Thoracic aortic rings were dissected from anesthetized (isoflurane) male Sprague-Dawley rats weighing 275-299 g. Tissues were immediately transferred to ice-cold Krebs-Henseleit solution, which had been aerated with 95% O2 and 5% CO2 for 30 minutes. Following removal of connective tissue, aortic sections were cut into 4 rings (˜2 mm each) and suspended on 2 L-shaped hooks, with one hook fixed at the bottom of the tissue bath (Schuler Organ Bath, Harvard Apparatus) and the other connected to a force transducer (F30 Force Transducer, Harvard Apparatus). Baths contained Krebs Henseleit solution (10 mL) heated to 37° C. and aerated with 95% O2 and 5% CO2. Rings were brought to an initial tension of 0.3-0.5 g and gradually raised to a resting tension of 1.0 g over 60 minutes. Rings were rinsed with Krebs Henseleit solution (heated to 37° C. and aerated with 95% 02 and 5% CO2) at 15 minute intervals until a stable baseline was obtained. Rings were considered to be stable after a resting tension of 1.0 g was maintained (for approximately 10 minutes) without need for adjustment. Rings were then contracted with 100 ng/mL phenylephrine by adding 100 μL of a 10 μg/mL phenylephrine stock solution. Tissues achieving a stable contraction were then treated in a cumulative, dose dependent manner with test compounds prepared in dimethylsulfoxide (DMSO). In some cases, tissues were rinsed three times over a 5 minute period with Krebs-Heinseleit's solution (heated to 37° C. and aerated with 95% 02 and 5% CO2), allowed to stabilize at baseline, and then used for characterization of other test articles or DMSO effects. All data were collected using the HSE-ACAD software provided by Harvard Apparatus. Percent relaxation effects were calculated in Microsoft Excel using the recorded tension value of 100 ng/mL phenylephrine treatment as 0% inhibition and, after washing the tissue with buffer, the original resting tension of tissue is used as 100% inhibition. EC50 values were calculated from concentration-response curves generated with GraphPad Prism Software.
# The biological data for some of the compounds of Formula IA and Formula IB, in comparison with the prior art compound, BAY 41-2272, as the reference compound, determined by the thoracic aorta ring assay are presented in Table 6 below.
SMILES,inhibition at 1 µM [%],inhibition at 3 µM [%],inhibition at 10 µM [%],EC50 [µM]
Fc1ccccc1Cn1nc(-c2ccccn2)nc1-c1ccccn1 [Compound I-1],20 to 40,60 to 80,100 to 120,1 to 2
Fc1ccccc1Cn1nc(-c2ncccn2)nc1-c1cscn1 [Compound I-3],40 to 60,80 to 100,100 to 120,1 to 2
Fc1ccccc1Cn1nc(-c2ccccn2)nc1-c1cscn1 [Compound I-4],60 to 80,100 to 120,–,< 1
Fc1ccccc1Cn1nc(-c2ccccn2)nc1-c1ncco1 [Compound I-6],20 to 40,60 to 80,100 to 120,1 to 2
"Fc1ccccc1Cn1nc(-c2ccccn2)nc1-c1cocn1 [Compound I-12, 4-(1-(2-fluorobenzyl)-3-(pyridin-2-yl)-1H-1,2,4-triazol-5-yl)oxazole]",40 to 60,80 to 100,100 to 120,< 1
Fc1ccccc1Cn1nc(-c2ccccn2)nc1-c1nccs1 [Compound I-25],40 to 60,80 to 100,100 to 120,< 1
Fc1ccccc1Cn1nc(-c2ncccn2)nc1-c1nccs1 [Compound I-30],20 to 40,60 to 80,100 to 120,2 to 3
Fc1ccc(-c2nc(-c3nccs3)n(Cc3ccccc3F)n2)nc1 [Compound I-38],40 to 60,80 to 100,100 to 120,1 to 2
Fc1ccccc1Cn1nc(-c2cscn2)nc1-c1nccs1 [Compound I-40],20 to 40,60 to 80,100 to 120,1 to 2
Fc1ccccc1Cn1nc(-c2nccs2)nc1-c1cscn1 [Compound I-41],80 to 100,100 to 120,100 to 120,< 1
Nc1ccnc(-c2nc(-c3nccs3)n(Cc3ccccc3F)n2)c1 [Compound I-44],80 to 100,100 to 120,100 to 120,< 1
Fc1ccccc1Cn1nc(-c2ncccn2)nc1-c1cocn1 [Compound I-46],20 to 40,60 to 80,80 to 100,2 to 3
"Nc1ccnc(-c2nc(-c3nccs3)n(Cc3ccccc3F)n2)n1 [Compound I-48, 2-(1-(2-fluorobenzyl)-5-(thiazol-2-yl)-1H-1,2,4-triazol-3-yl)pyrimidin-4-amine]",40 to 60,80 to 100,100 to 120,1 to 2
"Fc1ccccc1Cn1nc(-c2ccccn2)nc1-n1cncn1 [Compound I-50, 2′-(2-fluorobenzyl)-5′-(pyridin-2-yl)-2′H-1,3′-bi(1′,2′,4-triazole)]",10 to 20,20 to 40,60 to 80,–
"Nc1ccnc(-c2nc(-c3cscn3)n(Cc3ccccc3F)n2)c1 [Compound I-53, 2-(1-(2-fluorobenzyl)-5-(thiazol-4-yl)-1H-1,2,4-triazol-3-yl)pyridin-4-amine]",20 to 40,80 to 100,100 to 120,1 to 2
"COC(=O)N(C)c1c(N)nc(-c2nc(-c3nccs3)n(Cc3ccccc3F)n2)nc1N [Compound I-61, methyl 4,6-diamino-2-(1-(2-fluorobenzyl)-5-(thiazol-2-yl)-1H-1,2,4-triazol-3-yl)pyrimidin-5-yl(methyl)carbamate]",60 to 80,80 to 100,–,< 1
